Test system: several species of micro-organisms (Candida spp, Pseudomonas spp, E. coli)
Assay: Well diffusion bioassay, zones of inhibition
Type: cell-based
Details: NaCl tested on its own
Method: Escherichia coli (NCIMB 8545), Staphylococcus aureus (NCIMB 9518) and Pseudomonas aeruginosa (NCIMB 8626) are grown on nutrient agar or in nutrient broth for 24 hrs at 37° C.
Candida albicans (NCIMB 3179) and Saccharomyces cerevisiae are grown on sabaroud dextrose agar or in sabaroud dextrose broth for 24 hrs at 37° C. […]
Bacterial growth is monitored by measuring the culture optical density (OD) in a spectrophotometer (Anthos 2010) at a wavelength of 620 nm.
The formulations were assessed for antimicrobial activity against several species of micro-organisms (several of which produce catalase; Candida spp, Pseudomonas spp, E. coli) using the well diffusion bioassay, results were obtained by measuring the zones of inhibition (n=3).
Agar plates are inoculated by swabbing overnight culture onto the plate surface. Plates are allowed to stand at room temperature for 15 minutes before use. Wells 8.2 mm diameter are bored into the surface of the agar. A 180 μl sample is placed into each well. The samples diffuse into the agar around the well and are assayed for an ability to produce a zone of inhibition. Plates are incubated for 24, 48 or 72 hrs and zones of inhibition are measured using an Autodata automatic zone reader. The diameter of zones, including the diameter of the well (8.2 mm), is recorded. […]

[Cl-].[Na+] [NaCl, sodium chloride]
Antimicrobial activity: no discernible activity

Source: US20230022880A1, “Antimicrobial Composition” (INSTITUTE OF TECHNOLOGY SLIGO, priority 2019, published 2023)
